# Experimental data from publication PMC4849045, “Hepatoprotective Limonoids from Andiroba (Carapa guianensis)” (International Journal of Molecular Sciences, 2016).
# Where two headings read alike, the source gives them in different places.
# Legend:
# [1] = test system: LPS-activated NO production in mouse peritoneal macrophages; assay: LPS-induced NO production in mouse peritoneal macrophages; format: cell-based; conditions: Peritoneal macrophage; for inhibition at 3 µM / inhibition at 10 µM / inhibition at 30 µM / inhibition at 100 µM: read-out: Inhibition (%) of LPS-activated NO production; for IC50: read-out: IC50, inhibition of LPS-activated NO production
# Method: The effects of limonoids (1–17) on NO production were examined to provide an estimation of macrophage activation levels in LPS-treated mouse peritoneal macrophages.
# Assay for NO production in TGC-induced mouse peritoneal macrophages was performed as described previously. N^G-Monomethyl-L-arginine (L-NMMA) and caffeic acid phenethyl ester (CAPE) were used as reference compounds [33, 36].
# [2] = test system: primary cultured mouse hepatocytes; assay: D-GalN-induced cytotoxicity in primary cultured mouse hepatocytes (MTT assay); conditions: Hepatocyte, read-out: Inhibition (%) of D-GalN-induced cytotoxicity
# Method: Assay for the D-GalN-induced cytotoxicity in primary cultured mouse hepatocytes was performed as described previously [33, 35, 36].
# [3] = test system: L929 cells; assay: TNF-α-induced cytotoxicity in L929 cells (MTT assay); format: cell-based; conditions: Mus musculus; for inhibition at 1 µM / inhibition at 3 µM / inhibition at 10 µM / inhibition at 30 µM: read-out: Inhibition (%) of TNF-α-induced cytotoxicity; for IC50: read-out: IC50, inhibition of TNF-α-induced decrease in cell viability
# Method: The effects of the limonoids (1–17) on the sensitivity of hepatocytes to TNF-α were assessed by measuring TNF-α-induced decreases in the viability of L929 cells, a TNF-α-sensitive cell line, by using the MTT assay. In the absence of a test sample, the cells incubated with 1 ng/mL TNF-α for 44 h were compared with those not incubated with TNF-α.
# Assay for the TNF-α-induced cytotoxicity in L929 cells was performed as described previously. Silybin was used as a reference compound [36].
# [4] = Cell viability of LPS-treated mouse peritoneal macrophages (MTT assay); format: cell-based
# [5] = Mus musculus, 3 µM, mean ± S.E.M. (n = 4)
# [6] = Mus musculus, 10 µM, mean ± S.E.M. (n = 4)
# [7] = Mus musculus, 30 µM, mean ± S.E.M. (n = 4)
# [8] = Mus musculus, 100 µM, mean ± S.E.M. (n = 4)
# [9] = L929, 3 µM, 1 ng/mL TNF-α, 44 h, mean ± S.E.M. (n = 4)
# [10] = L929, 10 µM, 1 ng/mL TNF-α, 44 h, mean ± S.E.M. (n = 4)
# [11] = L929, 30 µM, 1 ng/mL TNF-α, 44 h, mean ± S.E.M. (n = 4)
# [12] = LPS-treated TGC-induced mouse peritoneal macrophages, 3 µM, mean ± S.E.M. (n = 4), read-out: cell viability (%) in MTT assay (values in parentheses) (converted)
# [13] = LPS-treated TGC-induced mouse peritoneal macrophages, 10 µM, mean ± S.E.M. (n = 4), read-out: cell viability (%) in MTT assay (values in parentheses) (converted)
# [14] = LPS-treated TGC-induced mouse peritoneal macrophages, 30 µM, mean ± S.E.M. (n = 4), read-out: cell viability (%) in MTT assay (values in parentheses) (converted)
# [15] = LPS-treated TGC-induced mouse peritoneal macrophages, 100 µM, mean ± S.E.M. (n = 4), # = cytotoxic effects were observed, read-out: cell viability (%) in MTT assay (values in parentheses) (converted)
# [16] = 3 µM, mean ± S.E.M. (n = 4), read-out: cell viability (%) in MTT assay (values in parentheses) (converted)
# [17] = 10 µM, mean ± S.E.M. (n = 4), read-out: cell viability (%) in MTT assay (values in parentheses) (converted)
# [18] = 30 µM, mean ± S.E.M. (n = 4), read-out: cell viability (%) in MTT assay (values in parentheses) (converted)
# [19] = 100 µM, mean ± S.E.M. (n = 4), # = cytotoxic effects were observed, read-out: cell viability (%) in MTT assay (values in parentheses) (converted)
SMILES,"inhibition at 3 µM [1, 5]","inhibition at 10 µM [1, 6]","inhibition at 30 µM [1, 7]","inhibition at 100 µM [1, 8]",IC50 ([1]; mouse peritoneal macrophages),inhibition at 3 µM [2],inhibition at 10 µM [2],inhibition at 30 µM [2],inhibition at 100 µM [2],"inhibition at 3 µM [3, 9]","inhibition at 10 µM [3, 10]","inhibition at 30 µM [3, 11]","viability at 3 µM [4, 12]","viability at 10 µM [4, 13]","viability at 30 µM [4, 14]","viability at 100 µM [4, 15]",IC50 ([1]; Mus musculus),"inhibition at 3 µM ([3]; L929, 44 h)","inhibition at 10 µM ([3]; L929, 44 h)","inhibition at 30 µM ([3]; L929, 44 h)",also measured
"CC(=O)O[C@@H]1C2C(C)(C)C(=O)C=C[C@]2(C)C2CC[C@@]3(C)[C@H](c4ccoc4)OC(=O)[C@H]4O[C@]43[C@]2(C)[C@@H]1O (stereo partly drawn) [compound 5, andirolide H]",5.8 ± 6.1%,63.9 ± 3%,97.2 ± 0.9%,99.7 ± 0.5%,9.4 µM,-6.2 ± 2.6%,-9 ± 0.5%,-9.2 ± 0.8%,-0.6 ± 0.8%,-0.7 ± 1.2%,7.6 ± 1.1%,39.2 ± 1.7%,99.8%,104%,109%,4.9%,–,–,–,–,"inhibition at 1 µM ([3]; L929, 1 µM, 1 ng/mL TNF-α, 44 h, mean ± S.E.M. (n = 4)): -6.6 ± 3.6%"
"CCC(=O)OC1C2(OC(C)=O)C(OC(C)=O)C3(C)CC24OC2(C)OC15C(CC(=O)OC)C1(C)CC(c6occc6C1=O)C5(O2)C41COC(=O)CC31 (stereo not drawn) [compound 16, guianolide A]",–,–,–,–,–,9.2 ± 4.2%,11 ± 5.3%,9.8 ± 2.8%,23.5 ± 3.5%,-6.2 ± 5.2%,-4.5 ± 1.9%,-7.3 ± 3%,96.9%,102%,98.7%,106%,77.9 µM,–,–,–,inhibition at 3 µM ([1]; Mus musculus): 1.9 ± 3.2%; inhibition at 10 µM ([1]; Mus musculus): 3.2 ± 1.4%; inhibition at 30 µM ([1]; Mus musculus): 12.7 ± 1.6%; inhibition at 100 µM ([1]; Mus musculus): 71.3 ± 3.2%
"CC(=O)O[C@@H]1C[C@H]2C(C)(C)C(=O)C=C[C@]2(C)[C@H]2CC[C@@]3(C)[C@H](c4ccoc4)C(=O)[C@H]4O[C@]43[C@@]21C [compound 8, epoxyazadiradione]",10.5 ± 0.9%,56 ± 4%,103 ± 4%,112.3 ± 0.7%,8.2 µM,-3.1 ± 8.9%,-2.2 ± 2.5%,-10.8 ± 0.6%,-11.9 ± 0.3%,–,–,–,–,–,–,–,–,13.7 ± 3.9%,39.1 ± 6.5%,91.5 ± 11.4%,"IC50 ([3]; L929, 44 h): 10.2 µM; viability at 3 µM [4, 16]: 99.6%; viability at 10 µM [4, 17]: 94.8%; viability at 30 µM [4, 18]: 81.9%; viability at 100 µM [4, 19]: 10%"
"CC(=O)O[C@@H]1CC2C(C)(C)C(=O)C=C[C@]2(C)C2CC[C@]3(C)C(=CC(=O)[C@@]3(O)c3ccoc3)[C@@]21C (stereo partly drawn) [compound 9, 17β-hydroxyazadiradione]",–,–,–,–,–,15.3 ± 2.3%,-4.1 ± 1.2%,-7.5 ± 1.4%,-7.5 ± 4%,–,–,–,–,–,–,–,20.3 µM,23.9 ± 3.9%,64 ± 3.3%,91.3 ± 8.2%,"inhibition at 3 µM ([1]; Mus musculus): -10.4 ± 6.8%; inhibition at 10 µM ([1]; Mus musculus): 9.4 ± 7.1%; inhibition at 30 µM ([1]; Mus musculus): 65.1 ± 4.5%; inhibition at 100 µM ([1]; Mus musculus): 97.4 ± 0.7%; inhibition at 1 µM ([3]; L929, 44 h): 14.1 ± 3.4%; IC50 ([3]; L929 cells, 1 ng/mL TNF-α, 44 h): 6.9 µM; viability at 3 µM [4]: 95.4%; viability at 10 µM [4]: 94.4 ± 14.1%; viability at 30 µM [4]: 94.8%; viability at 100 µM [4]: 84.8%"
"COC(=O)C(OC(C)=O)C1C2(C)CC34OC5(C)OC6(C7CC(=O)OC(c8ccoc8)C7(C)C(OC(C)=O)C(O)C6(O5)C13C)C(OC(=O)C(C)C)C4(O)C2OC(C)=O (stereo not drawn) [compound 15, Carapanolide O]",-2.5 ± 5.4%,14.7 ± 8.2%,6.9 ± 5%,102 ± 3.2%,46 µM,7.5 ± 3.9%,-5.3 ± 5.6%,-5.2 ± 3.9%,-2.1 ± 1.7%,–,–,–,–,–,–,–,–,6.3 ± 4.3%,1 ± 6.4%,1.5 ± 4.1%,"viability at 3 µM [4, 16]: 104%; viability at 10 µM [4, 17]: 108%; viability at 30 µM [4, 18]: 107%; viability at 100 µM [4, 19]: 109%"
